Marks after values point to notes of the source that are not given here.
Tests used:
[1] = tested on: KBV1; experiment: cells; assay type: cell-based; conditions: for inhibition at 3 µM: KB-V1, 3000 nM; for IC50: 3 days, SRB
Method: (§1) Cell Survival Assay: Standard Pharmacological Test Procedure. […] Compounds are incubated with cells for 3 days.

[2] = tested on: KB85; experiment: cells; assay type: cell-based; conditions: 3 days, SRB
Method: as §1

[3] = tested on: KB cells; experiment: cells; assay type: cell-based; conditions: 3 days, SRB
Method: as §1

[4] = tested on: bovine microtubule-associated protein (MAP)-rich tubulin; assay type: biochemical
Summary of the method: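 MAP-rich bovine tubulin at 1.5 mg/ml final was dissolved in cold PEM buffer (80 mM Na-PIPES pH 6.9, 1 mM MgCl2, 1 mM EGTA) with 1 mM GTP, then centrifuged at 12,000×g for 10 min at 4° C. Aliquots of 100 μl were added quickly to a low-volume 96-well plate holding duplicate 10 μl compound samples. Absorbance at 340 nm was read each minute for 60 min at 24° C.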

SMILES | inhibition at 3 µM ([1]; Homo sapiens) [%] | IC50 ([2]; 72 h) [µM] | IC50 ([3]; Homo sapiens, KB, 72 h) [µM] | Tubulin Polym. % inhibition at 0.5 uM [4] | Tubulin Polym. % inhibition at 0.3 uM [4] | IC50 ([1]; Homo sapiens, KB-V1, 72 h) [µM] | IC50 [1] [µM] | IC50 [2] [µM] | IC50 [3] [µM]
CN[C@H](C(=O)N[C@H](C(=O)N(C)[C@H](/C=C(\C)C(=O)N1C[C@H](O)C[C@H]1C(=O)OC)C(C)C)C(C)(C)C)C(C)(C)c1ccccc1 [Example 40, N,β,β-trimethyl-L-phenylalanyl-N^1-{(1S,2E)-4-[(2S,4R)-2-(methoxycarbonyl)-4-hydroxypyrrolidin-1-yl]-1-isopropyl-3-methyl-4-oxobut-2-enyl}-N^1,3-dimethyl-L-valinamide] | 4 | 0.116 | 0.0035 | 93*** % | – | – | – | – | –
CN[C@H](C(=O)N[C@H](C(=O)N(C)[C@H](/C=C(\C)C(=O)N1CCC[C@H]1C(=O)O)C(C)C)C(C)(C)C)C(C)(C)c1cc(C)cc(C)c1 [Example 20, N,β,β,3,5-Pentamethyl-L-phenylalanyl-N^1-{(1S,2E)-4-[(2S)-2-carboxypyrrolidin-1-yl]-1-isopropyl-3-methyl-4-oxobut-2-enyl}-N^1,3-dimethyl-L-valinamide] | 3 | 0.664 | 0.082 | – | 80% | – | – | – | –
CN[C@H](C(=O)N[C@H](C(=O)N(C)[C@H](/C=C(\C)C(=O)N1CCN(C)CC1)C(C)C)C(C)(C)C)C(C)(C)c1cc(C)cc(C)c1 [Example 8, N,β,β,3,5-Pentamethyl-L-phenylalanyl-N^1-[(1S,2E)-1-isopropyl-3-methyl-4-(4-methylpiperazin-1-yl)-4-oxobut-2-enyl]-N^1,3-dimethyl-L-valinamide] | – | 0.056 | 0.035 | – | 68% | 1.62 | – | – | –
CN[C@H](C(=O)N[C@H](C(=O)N(C)[C@H](/C=C(\C)C(=O)N1CCCC[C@H]1C(=O)OC)C(C)C)C(C)(C)C)C(C)(C)c1ccccc1 [Example 49, N,β,β-trimethyl-L-phenylalanyl-N^1-{(1S,2E)-1-isopropyl-4-[(2S)-2-(methoxycarbonyl)piperidin-1-yl]-3-methyl-4-oxobut-2-enyl}-N^1,3-dimethyl-L-valinamide] | – | 0.017 | 0.0052 | – | 62(2) % | 0.15 | – | – | –
CN[C@H](C(=O)N[C@H](C(=O)N(C)[C@H](/C=C(\C)C(=O)N1CCC[C@H]1C(=O)N1CCC[C@H]1C(=O)NCc1ccccc1)C(C)C)C(C)(C)C)C(C)(C)c1cc(C)cc(C)c1 [Example 11, 1-{(2E,4S)-2,5-Dimethyl-4-[methyl(N,β,β,3,5-pentamethyl-L-phenylalanyl-3-methyl-L-valyl)amino]hex-2-enoyl}-L-prolyl-N-benzyl-L-prolinamide] | 8 | 0.024 | 0.00056 | – | 41% | – | – | – | –
CN[C@H](C(=O)N[C@H](C(=O)N(C)[C@H](/C=C(\C)C(=O)N1CCOCC1)C(C)C)C(C)(C)C)C(C)(C)c1cccc(C)c1 [Example 1, N,β,β,3-Tetramethyl-L-phenylalanyl-N^1-[(1S,2E)-1-isopropyl-3-methyl-4-morpholin-4-yl-4-oxobut-2-enyl]-N^1,3-dimethyl-L-valinamide] | – | 0.056 | 0.0195 | – | 79% | 1.51 | – | – | –
CN[C@H](C(=O)N[C@H](C(=O)N(C)[C@H](/C=C(\C)C(=O)O)C(C)C)C(C)(C)C)C1(C)CCCc2ccccc21 (stereo partly drawn) [Example 59, (2E,4S)-2,5-dimethyl-4-(methyl{3-methyl-N-[(2S)-2-(methylamino)-2-(1-methyl-1,2,3,4-tetrahydro-1-naphthalenyl)ethanoyl]-L-valyl}amino)-2-hexenoic acid] | – | 0.0066 | 0.0055 | – | 93% | 0.076 | – | – | –
CN[C@H](C(=O)N[C@H](C(=O)N(C)[C@H](/C=C(\C)C(=O)N1CCOCC1)C(C)C)C(C)(C)C)C(C)(C)c1ccc(C)c(C)c1 [Example 2, N,β,β,3,4-Pentamethyl-L-phenylalanyl-N^1-[(1S,2E)-1-isopropyl-3-methyl-4-morpholin-4-yl-4-oxobut-2-enyl]-N^1,3-dimethyl-L-valinamide] | – | 0.062 | 0.034 | – | 37% | 0.162 | – | – | –
C/C(=C\[C@H](C(C)C)N(C)C(=O)[C@@H](NC(=O)[C@@H](N(C)C)C(C)(C)c1ccccc1)C(C)(C)C)C(=O)N1CCN(Cc2ccccc2)CC1 [Example 15, N,β,β,β-Tetramethyl-L-phenylalanyl-N^1[(1S,2E)-4-(4-benzylpiperazin-1-yl)-1-isopropyl-3-methyl-4-oxobut-2-enyl]-N^1,3-dimethyl-L-valinamide] | – | – | – | – | 77% | – | 0.354 | 0.018 | 0.0072
CN[C@H](C(=O)N[C@H](C(=O)N(C)[C@H](/C=C(\C)C(=O)N1CCC[C@H]1C(=O)OC)C(C)C)C(C)(C)C)C(C)(C)C1CCCCC1 [Example 45, 3-cyclohexyl-N-methyl-L-valyl-N^1-{(1S,2E)-4-[(2S)-2-(methoxycarbonyl)pyrrolidin-1-yl]-1-isopropyl-3-methyl-4-oxobut-2-enyl}-N^1,3-dimethyl-L-valinamide] | – | 0.016 | 0.0037 | – | 62(2) % | 0.493 | – | – | –
CN[C@H](C(=O)N[C@H](C(=O)N(C)[C@H](/C=C/P(=O)(OC)OC)C(C)C)C(C)(C)C)C(C)(C)c1ccccc1 [Example 68, N,β,β-trimethyl-L-phenylalanyl-N^1-[(1S,2E)-3-(dimethoxyphosphoryl)-1-isopropylprop-2-enyl]-N^1,3-dimethyl-L-valinamide] | 8 | 2.08 | 1.98 | – | 45% | – | – | – | –
CN[C@H](C(=O)N[C@H](C(=O)N(C)[C@H](/C=C(\C)C(=O)O)C(C)C)C(C)(C)C)C12CC3CC(CC(C3)C1)C2 [Example 55, (2E,4S)-4-[{N-[(2S)-2-(1-adamantyl)-2-(methylamino)ethanoyl]-3-methyl-L-valyl}(methyl)amino]-2,5-dimethyl-2-hexenoic acid] | 13 | 0.646 | 0.603 | – | 66% | – | – | – | –
CN[C@H](C(=O)N[C@H](C(=O)N(C)[C@H](/C=C(\C)C(=O)N1CCCC[C@H]1C(=O)O)C(C)C)C(C)(C)C)C(C)(C)c1ccccc1 [Example 50, N,β,β-trimethyl-L-phenylalanyl-N^1-{(1S,2E)-4-[(2S)-2-carboxypiperidin-1-yl]-1-isopropyl-3-methyl-4-oxobut-2-enyl}-N^1,3-dimethyl-L-valinamide] | 9 | 0.27 | 0.064 | – | 84(2) % | – | – | – | –
CNC(C(=O)NC(C(=O)N(C)C(C=C(C)C(=O)CO)C(C)C)C(C)(C)C)C(C)(C)c1ccccc1 (centres unmarked) [Example 90, N-{1-[(5-Hydroxy-1-isopropyl-3-methyl-4-oxo-pent-2-enyl)-methyl-carbamoyl]-2,2-dimethyl-propyl}-3-methyl-2-methylamino-3-phenyl-butyramide] | – | 0.068 | 0.043 | 76*** % | – | 1.13 | – | – | –

Source: patent publication US7390910B2, “Compounds for treating tumors” (priority 2003, dated 2008)
